Molecular target: T1, TNK2 (ACK) (Homo sapiens, UniProt Q07912)
T1 construct: purchased Thermo Fisher Scientific (Life Technologies) SelectScreen
Experiment: SelectScreen LanthaScreen
Assay type: binding
Conditions: read-out: % displacement
Summary of the method: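 Percent values come from Thermo SelectScreen profiling of NU5455, combining activity and binding assays. CSF1R was run in Z'LYTE format at Km app ATP, and CAMK1 in Adapta format with ATP listed at 10.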

T1 sequence (Q07912 whole entry): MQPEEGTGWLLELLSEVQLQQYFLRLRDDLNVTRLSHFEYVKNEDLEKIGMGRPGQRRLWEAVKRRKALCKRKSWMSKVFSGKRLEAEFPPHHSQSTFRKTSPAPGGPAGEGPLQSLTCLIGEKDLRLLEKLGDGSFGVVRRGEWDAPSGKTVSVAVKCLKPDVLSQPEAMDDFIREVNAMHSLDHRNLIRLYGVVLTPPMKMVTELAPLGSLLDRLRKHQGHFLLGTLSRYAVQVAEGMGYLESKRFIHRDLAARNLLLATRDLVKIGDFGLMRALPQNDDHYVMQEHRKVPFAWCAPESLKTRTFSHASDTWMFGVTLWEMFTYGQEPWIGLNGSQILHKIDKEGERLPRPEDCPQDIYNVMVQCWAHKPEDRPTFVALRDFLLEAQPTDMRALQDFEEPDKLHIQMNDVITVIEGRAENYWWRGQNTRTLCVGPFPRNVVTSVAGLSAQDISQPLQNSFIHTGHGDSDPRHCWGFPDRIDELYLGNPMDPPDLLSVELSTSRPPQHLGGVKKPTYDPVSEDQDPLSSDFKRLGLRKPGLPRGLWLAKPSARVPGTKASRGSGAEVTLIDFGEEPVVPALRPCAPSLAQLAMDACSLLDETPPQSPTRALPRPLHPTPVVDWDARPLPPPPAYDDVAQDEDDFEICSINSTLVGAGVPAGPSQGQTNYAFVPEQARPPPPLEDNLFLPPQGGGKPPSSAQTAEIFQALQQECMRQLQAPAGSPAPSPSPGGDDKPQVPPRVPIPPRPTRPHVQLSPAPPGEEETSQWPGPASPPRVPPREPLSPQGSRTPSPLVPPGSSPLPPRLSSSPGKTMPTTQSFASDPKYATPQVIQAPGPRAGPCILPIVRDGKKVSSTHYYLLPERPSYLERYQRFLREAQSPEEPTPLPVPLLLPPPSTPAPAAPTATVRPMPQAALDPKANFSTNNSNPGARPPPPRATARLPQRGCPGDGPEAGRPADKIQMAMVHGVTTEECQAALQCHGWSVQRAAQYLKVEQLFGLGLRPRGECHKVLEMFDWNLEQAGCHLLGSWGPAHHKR

CN(C(=O)CN1CCOCC1)c1ccc2sc3c(-c4cccc5c(=O)cc(N6CC7CCC(C6)O7)oc45)cccc3c2c1 [NU5455]
inhibition at 1 µM: 1.8%

Reference: PMC6934184, “Selective DNA-PKcs inhibition extends the therapeutic index of localized radiotherapy and chemotherapy” (The Journal of Clinical Investigation, 2019)
